Experiment [1] has as its system NADPH-oxidase activity of monocytes. The experiment can be described thus: NADPH-oxidase activity of monocytes, isoluminol-enhanced chemiluminescence. Type of experiment: cell-based, human. The protocol: (§1) Peripheral blood was obtained from healthy blood donors at Sahlgren's Hospital, Göteborg, Sweden. […] See Hansson et al. 1996. […] J Immunol. 156:427.
NADPH-oxidase activity was determined using an isoluminol-enhanced chemiluminescence (CL) system that quantitates extracellular reactive oxygen species (ROS). See Dahlgren, C., Karlsson, A. 1999. Respiratory burst in human neutrophils. J Immunol Methods 232:3-14.
Superoxide anion production in elutriated monocytes was investigated by isoluminol-amplified CL (A). Cells were treated with histamine (50 μM) or the histamine H2 receptor antagonist ranitidine (50 μM).

Experiment [2] has as its system Chlamidia trachomatis. Particulars: ophthalmic solution 0.09% by weight, containing erythromycin, every three hours. The method, then: A subject presenting an eye infection due to Chlamidia trachomatis is treated with the compositions of the described embodiment using an ophthalmic solution of histamine dihydrochloride at 0.09% by weight of formulation. Commercially available ophthalmic solutions are well known in the art. Additionally, the ophthalmic solution, preferably in drop form, contains erythromycin. Application of the solution to the eye occurs every three hours. A solution containing only the ROM production and release inhibiting compound is given hourly to ease the discomfort of the subject.

The subject of experiment [3] is microbial infections. To be noted: 0.08% by weight together with antimicrobial.
Protocol: The ability of the ROM production and release inhibition compounds of the described embodiment to increase the effectiveness of antimicrobials is evaluated in two groups of 10 subjects each. No subjects are suffering from active infections at the initiation of the study. Group I subjects receive the type of antimicrobial used in treating the specific infection according to the dosage given by the manufacturer. […] The healing time of the patient in each group is then monitored.
In experiment [4] the test system is Tinea infection. Particulars: cream, 0.08% by weight, topical four to five times a day.
From the text: Treatment of the subjects consists of the topical application of the medication four to five times a day at the lesion site. When treating fungal growths, care is taken not to contaminate new areas with fungal spores.
In experiment [5] the test system is NK cells and T cells. The experiment can be described thus: Flow cytometry assay of lymphocyte apoptosis induced by Hp(2-20)-activated monocytes. Type of experiment: cell-based, human.
From the text: as §1
Apoptosis was monitored by use of flow cytometry, as described elsewhere. See Mellqvist et al. 2000. […] Blood. 96:1961-8. T cells or NK cells were gated after exposure to monocytes, and the gate was set to comprise lymphocytes with a reduced forward scatter and an increased right angle scatter characteristic of apoptosis. See Hansson et al. 1996. Two additional methods were used to determine apoptosis in NK cells and T cells: analysis of DNA strand breaks by terminal deoxynucleotidyl transferase-mediated bromolated dUTP nick end labelling of DNA fragments (TUNEL assay) and Annexin V staining, as described elsewhere. See Mellqvist et al.; Hansson et al. 1999. […] J Interferon Cytokine Res. 19:1135-44.
One million cells were stained with appropriate fluorescein isothiocyanate (FITC)- and phycoerythrin (PE)-conjugated monoclonal antibodies (Becton & Dickinson, Stockholm, Sweden; 10 μl/10^6 cells), as described in detail elsewhere. See Hansson et al. 1999. Cells were analyzed by use of flow cytometry on a FACSort with a Lysys II software program (Becton & Dickinson). Lymphocytes were gated on the basis of forward and right angle scatter. The flow rate was adjusted to <200 cells x s^−1 and at least 5×10^3 cells were analyzed for each sample.
After incubation, cells in a lymphocyte gate were assayed for morphological features of apoptosis (reduced forward and increased right angle scatter) by use of flow cytometry. In A, data are the frequency of apoptotic CD56^+ (NK; dark gray bars) or CD3ε^+ (T; open bars) after the following treatments:
Monocytes and/or lymphocytes were prepared as described in Methods. After incubation for 16 hrs, cells in a lymphocyte gate were assayed for morphological features of apoptosis (reduced forward and increased right angle scatter) by use of flow cytometry. Data are the frequency of apoptotic lymphocytes. histamine dihydrochloride, ranitidine, and Hp(2-20) were used at 50 μM, catalase at 100 U/ml, and SOD at 50 U/ml.
For orientation: Flow cytometry measures light scatter and fluorescence of single cells or particles in a stream.

Experiment [6] deals with NADPH oxidase (Homo sapiens, UniProt P04839). To be noted: membrane-bound phagocyte oxidase, substrate; cited from earlier work.
The subject of experiment [7] is Arcanobacterium haemolyticum. To be noted: reported in the literature; cited from earlier work.
Experiment [8] concerns Helicobacter pylori. Briefly: Treatment of ulcers caused by Helicobacter pylori, oral controlled release device. Type of experiment: in vivo. To be noted: in combination with chemotherapeutics. The method, then:
A patient diagnosed with ulcers caused by Helicobacter pylori is treated with the compounds of the described embodiment. A controlled release mechanism is replenished with an effective dose of the ROM inhibitory compound NADPH oxidase inhibitor diphenlyeneiodonium and administered to the patient by oral intake of the device. As the device rests in the patient's stomach it simultaneously delivers the compounds of the described embodiment and decomposes in order to allow excretion from the body. The compounds of the described embodiment are administered in combination with chemotherapeutics typically administered for such an infection, such as amoxycillin, clarithromycin, tetracycline, or metronidazole.

Experiment [9] concerns Streptococcus mutans. The experiment can be described thus: Treatment of dental carries using a toothpaste and mouthwash. It is filed as in vivo. To be noted: toothpaste and mouthwash 0.05% by weight, five times per day for seven days. The method, then:
A subject suffering from dental carries due to Streptococcus mutans is treated with a toothpaste and a mouthwash containing the ROM inhibitory compound NADPH oxidase inhibitor diphenlyeneiodonium in a concentration of 0.05% by weight of formulation. The treatment consists of five tooth brushings with this toothpaste and mouthwash applications per day for a period of seven days.

Experiment [10] has as its system diarrhea-causing pathogens (Escherichia coli, Salmonella, Shigella or the like). Briefly: Treatment of diarrhea by oral administration of a capsule. Particulars: capsule 0.8% by weight, three to ten per day for seven to thirty days, with chemotherapeutic. Type of experiment: in vivo. The protocol:
A subject suffering from diarrhea due to any number of pathogenic geni, speci, or strain of Escherichia coli, Proteus mirabilis, Salmonella enteritidis, Klebsiella Yersinia, Shigella, Serratia, Candida, Giardia intestinalis, Cryptosporidium, Vibrio cholera, Campylobacter, Ascaris or the like responsible for gastrointestinal distress in the form of diarrhea or the like is treated with a capsule containing the ROM inhibitory compound NADPH oxidase inhibitor diphenlyeneiodonium in a concentration of 0.8% by weight of formulation in addition to administration of the appropriate chemotherapeutic compound, such as an aminoglycoside, chloramphenicol, trimethoprimsulfa-methoxazole, doxycycline, or a fluoroquinolone. The treatment consists of oral intake of three to ten capsules per day for a period of seven to thirty days (depending the causative agent of the infection).

Experiment [11] has as its system Streptococcus pneumonia. The experiment can be described thus: Treatment of Streptococcus pneumonia lung infection using a nebulizer. Type of experiment: in vivo. Particulars: 0.05% by weight, mist through a nebulizer. The method, then:
A subject diagnosed with Streptococcus pneumonia is treated with compounds of the described embodiment in the form of a nebulizer. The nebulizer is held firmly against the oral-nasal cavities of a patient with a respiratory infection. The nebulizer is used to deliver an aerosol mist as the patient inhales deeply. The aerosol mist contains either solely an effective amount of the preparation herein described or a mixture of the preparation and the chemotherapeutic used often administered for such an infection, such as, cephalexin. The ROM inhibitory compound NADPH oxidase inhibitor diphenlyeneiodonium in a concentration of 0.05% by weight of formulation is delivered as a mist in the patients lungs through a nebulizer.

Experiment [12] deals with S somaliensis. Particulars: McNeil and Brown 1994; cited from earlier work.
For experiment [13], the system named is NADPH-oxidase activity of monocytes. To be noted: earlier finding, Bylund et al. 2001; cited from earlier work.
The mark [14] stands for this setting: ranitidine 50 μM with histamine 50 μM.
[15] abbreviates: histamine 50 μM, catalase 100 U/ml, SOD 50 U/ml, Hp(2-20) 50 μM, 16 hrs.

Results on 14 compounds are retold here after US20030149090A1, “Compositions for the treatment of infectious diseases” (priority 2001, published 2003).

Entries after “also recorded” stand apart in the source; their conditions may differ.

As for `Cl.Cl.NCCc1c[nH]cn1` [Histamine, Histamine dihydrochloride], the “Inhibition of Hp(2-20)-induced oxygen radical formation in monocytes” value in experiment [1] (histamine 50 μM, elutriated monocytes, dihydrochloride) is “markedly inhibited; also recorded: reduce or inhibit”. In addition, the “Time period of bacterial eye infection, damage and discomfort” value in [2] is listed as “reduces the time period of bacterial infection”. Besides, the “Healing time with antimicrobial plus ROM inhibitory composition versus antimicrobial alone” value in experiment [3] is “faster healing time”. The “Healing time compared to the control group” value in experiment [4] is given as “decrease in healing time”. Moreover, in [5] (dihydrochloride), the “Protection of NK cells and T cells from monocyte-dependent, Hp(2-20)-induced apoptosis” value (shortened to “Protection of NK cells and T cells”) was “resuced T cells and NK cells from apoptosis; also recorded: protected NK cells/T cells from the monocyte-induced apoptosis; also recorded: prevent the triggering of NK cell and T cell apoptosis; also recorded: protect T cells and NK cells from apoptotic cell death”. Broadly, the Km is the concentration of substrate that gives half-maximal velocity. Regarding `NC(=O)C1=CN([C@@H]2O[C@H](COP(=O)(O)OP(=O)(O)OC[C@H]3O[C@@H](n4cnc5c(N)ncnc54)[C@H](O)[C@@H]3O)[C@@H](O)[C@H]2O)C=CC1` [NADH], the Michaelis constant (Km) in experiment [6] was 450 µM. `NC(=O)C1=CN([C@@H]2O[C@H](COP(=O)(O)OP(=O)(O)OC[C@H]3O[C@@H](n4cnc5c(N)ncnc54)[C@H](OP(=O)(O)O)[C@@H]3O)[C@@H](O)[C@H]2O)C=CC1` [NADPH]: the Km in [6] was 45 µM. For the compound `O=C(N[C@H](CO)[C@H](O)c1ccc([N+](=O)[O-])cc1)C(Cl)Cl` [chloramphenicol], the “Susceptibility of A. haemolyticum” value in experiment [7] is on record as “uniformly susceptible”. On to `c1ccc2c(c1)[I+]c1ccccc1-2` [diphenlyeneiodonium], for which the “Treatment of gastrointestinal ulcers” value in experiment [8] is listed as “effective in expediting the treatment of gastrointestinal ulcers”. For the same compound, in [9], the “Treatment of dental carries” value is recorded as “effective in treating the dental carrier”. For the same compound, the Treatment of diarrhea entry in experiment [10] was “effective in accelerating the treatment of diarrhea”. In [11], the “Recovery of a patient with pneumonia” value is “hastens the recovery”. On to `CC[C@H]1OC(=O)[C@H](C)[C@@H](O[C@H]2C[C@@](C)(OC)[C@@H](O)[C@H](C)O2)[C@H](C)[C@@H](O[C@@H]2O[C@H](C)C[C@H](N(C)C)[C@H]2O)[C@](C)(O)C[C@@H](C)C(=O)[C@H](C)[C@@H](O)[C@]1(C)O` [erythromycin], for which the “In vitro sensitivity of S somaliensis” value in experiment [12] was “sensitive”. As for `CC(=O)O[C@H]1C[C@@]2(C)[C@@H](C[C@@H](O)[C@H]3[C@@]4(C)CC[C@@H](O)[C@@H](C)[C@@H]4CC[C@@]32C)/C1=C(\CCC=C(C)C)C(=O)O` [fusidic acid], in experiment [12], the “In vitro sensitivity of S somaliensis” value is recorded as “sensitive”. Also, in experiment [7], the “Susceptibility of A. haemolyticum” value was “uniformly susceptible”. Turning to `CNC(=C[N+](=O)[O-])NCCSCc1ccc(CN(C)C)o1.Cl` [ranitidine, ranitidine hydrochloride], in experiment [1] (setting [14]), the “Effect on histamine's inhibition of Hp(2-20)-induced oxygen radical formation” value is “reversed the inhibition”. Besides, in [5] (setting [14]), the “Effect on the histamine-induced protection of T cells and NK cells from apoptosis” value was “antagonized”. Turning to `[H]/N=C(/N)N[C@H]1[C@H](O)[C@@H](O)[C@H](O[C@@H]2O[C@@H](C)[C@](O)(C=O)[C@H]2O[C@@H]2O[C@@H](CO)[C@H](O)[C@@H](O)[C@@H]2NC)[C@@H](N/C(N)=N\[H])[C@@H]1O` [streptomycin], the “In vitro sensitivity of S somaliensis” value in experiment [12] was “sensitive”. As to `NC[C@H]1O[C@H](O[C@H]2[C@H](O)[C@@H](O[C@H]3O[C@H](CO)[C@@H](O)[C@H](N)[C@H]3O)[C@H](N)C[C@@H]2N)[C@H](N)C[C@@H]1O` [tobramycin], the “In vitro sensitivity of S somaliensis” value in [12] is recorded as “sensitive”. `COc1cc(Cc2cnc(N)nc2N)cc(OC)c1OC` [trimethoprim]: the “In vitro sensitivity of S somaliensis” value in experiment [12] was “resistant”. For the compound “AKKVFKRLEKLFSKIQNDK [Hp(2-20), cecropin-like peptide derived from Helicobacter pylori]”, the “Superoxide anion formation in phagocytic cells” value in experiment [13] is listed as “potently triggers superoxide anion formation”. In addition, in [5] (Hp(2-20) 50 μM, lymphocytes + 25% or 50% monocytes, overnight (16 hrs) incubation), the “Induction of NK cell and T cell apoptosis by monocytes treated with the peptide” value is “induces apoptosis of T lymphocytes with CD3ε^+ phenotype and natural killer cells with CD56^+ phenotype; also recorded: triggers programmed cell death (apoptosis) of NK cells and T cells; also recorded: pronounced in NK cells as well as in CD3ε^+ T cells; also recorded: triggered NK cell and T cell death by apoptosis”. Consider Superoxide dismutase [SOD], for which, in experiment [5] (setting [15]), the “Protection of NK cells and T cells” value was “completely prevented”.

For the compound catalase, in [5] (setting [15]), the “Protection of NK cells and T cells” value was “completely prevented”.
